Assay results as given in US20220249525A1, “Fatty Acid Compounds for Prevention and Treatment of Neurodegenerative Disorders” (T OMEGA AS, priority 2019, published 2022).

Experiments:
[1] = test system: HeLaNRF1/c4 reporter cells; assay: NRF1-regulated mitochondrial biogenesis, GFP reporter by flow cytometry; type: cell-based; conditions: 5 days; AICAR 250 μM or 500 μM, resveratrol 25 uM, test compounds 30 μM and 60 μM
Method: The HeLaNRF1/c4 reporter cells were employed to investigate effects of the modified fatty acids on NRF1-regulated mitochondrial biogenesis. The cells (250,000) were seeded in T75 flasks and incubated for 3 hours to allow attachment. The compounds were dissolved in DMSO and diluted in culture medium to provide the final concentration. DMSO at a concentration equivalent to the highest compound concentration was added to control cultures. Resveratrol and AICAR were used as positive controls. Resveratrol has not previously been tested in this reporter model, but we found it relevant to include it for purposes of experimental and mechanistic comparisons. After 3 days of treatment the media was replaced with fresh media containing the corresponding compound. On day 5, the cells were harvested and the cultures split into three fractions: One fraction was used for detection of mitoGFP expression by flow cytometry, to assess effects on NRF-1 regulated mitochondrial biogenesis. Flow cytometry analysis was performed as previously described. Another fraction was used for extraction of RNA and subsequent gene expression analysis using quantitative PCR (see below). The last fraction was employed to investigate effects on mitochondrial respiratory function by extracellular flux analysis (described above). The experiment was replicated three times. […]

[2] = test system: HeLaNRF1/c4 reporter cells; assay: Mitochondria respiration assay (OCR) in HeLaNRF1/c4 reporter cells after 5 days; type: cell-based
Method: Mitochondria function was analyzed by measuring oxygen consumption rate (OCR) by extracellular flux analysis in a Seahorse XFe96 instrument (Agilent Seahorse XF Technologies). The measurements were performed in DADA basic media without phenol red, supplemented with L-glutamine (2 mM), pyruvate (2 mM), and sodium chloride, NaCl (32 mM) (Sigma-Aldrich). Respiratory rates were measured following sequential additions of glucose (10 mM), oligomycin, carbonyl cyanide m-chlorophenyl hydrazine (CCCP) and a mixture of rotenone (1 μM) and antimycin A (1 μM). Before carrying out the measurements for each cell model, optimizations were done for; cell number, CCCP, and oligomycin concentrations. […] The OCR measured initially (before any additions) represented the rate ‘basal respiration.’ The addition of ATP synthase inhibitor oligomycin provided oxygen consumption independent of ATP production (‘leak activity’). Maximal respiration (also referred to as ‘respiratory capacity’) was measured upon addition of the uncoupler CCCP. […] To evaluate the effects of the different treatments, the respiratory rates from compound-treated wells were normalized to protein content, and calculated as percentage of the average respiratory rate of the DMSO-treated control wells. […]

[3] = test system: HeLaNRF1/c4 reporter cells; assay: Gene expression (qPCR) in HeLaNRF1/c4 reporter cells; type: cell-based; conditions: long-term treatment, vs control
Method: The HeLaNRF1/c4 reporter cells were employed to investigate effects of the modified fatty acids on NRF1-regulated mitochondrial biogenesis. The cells (250,000) were seeded in T75 flasks and incubated for 3 hours to allow attachment. The compounds were dissolved in DMSO and diluted in culture medium to provide the final concentration. DMSO at a concentration equivalent to the highest compound concentration was added to control cultures. Resveratrol and AICAR were used as positive controls. Resveratrol has not previously been tested in this reporter model, but we found it relevant to include it for purposes of experimental and mechanistic comparisons. After 3 days of treatment the media was replaced with fresh media containing the corresponding compound. On day 5, the cells were harvested and the cultures split into three fractions: One fraction was used for detection of mitoGFP expression by flow cytometry, to assess effects on NRF-1 regulated mitochondrial biogenesis. Flow cytometry analysis was performed as previously described. Another fraction was used for extraction of RNA and subsequent gene expression analysis using quantitative PCR (see below). The last fraction was employed to investigate effects on mitochondrial respiratory function by extracellular flux analysis (described above). The experiment was replicated three times.
Total RNA was extracted from harvested cells (RNAeasy kit Qiagen, Hilden, Germany). The RNA content was quantified on Nanodrop 1000 Spectrophotometer (Thermo Scientific). From 1 μg total RNA, cDNA was synthesized using High-Capacity Reverse Transcription Kit (Applied Biosystems, Carlsbad, Calif., US). Gene quantification was done using TaqMan probes for gene expression assays (Applied Biosystems). Probes used were: PGC1α (PPARG coactivator 1α), Hs00173304_m1; HIF1α (hypoxia inducible factor 1α), Hs00153153_m1; PDK1 (pyruvate dehydrogenase kinase 1), Hs01561847_m1; PDK4, (pyruvate dehydrogenase kinase 4), Hs01037712_m1; SIRT4 (sirtuin 4) Hs01015516_g1; ACOX1 (acyl-CoA oxidase 1) Hs01074241_m1; as reference genes, we used; Eukaryotic 18S rRNA Hs99999901_s1; actin beta Hs99999903_m1. Fold change was calculated as geometric mean of ΔΔCt of the two reference genes.

HCC827 cells = assay: Mitochondria respiration assay (OCR, extracellular flux) in HCC827 cells; type: cell-based; conditions: compared to control
Method: (§1) Non-small cell lung cancer cells, HCC827 (ATCC) were cultured in RPMI-1640 Glutamax medium (Sigma-Aldrich St. Louis, Mo., USA), under conventional culture conditions. Media was supplemented with 10% Fetal Bovine Serum (FBS), 1% glutamine and 1% streptomycin/penicillin (Sigma-Aldrich). HeLaNRF1/c4 reporter cells were cultured in Dulbecco's Modified Eagle's Medium (DMEM) supplemented with 10% FBS, 2 mM L-Glutamine, 100 u/ml penicillin/streptomycin (Sigma-Aldrich,). Incubation was done at 37° C. in 5% CO2.
Mitochondria function was analyzed by measuring oxygen consumption rate (OCR) by extracellular flux analysis in a Seahorse XFe96 instrument (Agilent Seahorse XF Technologies). The measurements were performed in DADA basic media without phenol red, supplemented with L-glutamine (2 mM), pyruvate (2 mM), and sodium chloride, NaCl (32 mM) (Sigma-Aldrich). Respiratory rates were measured following sequential additions of glucose (10 mM), oligomycin, carbonyl cyanide m-chlorophenyl hydrazine (CCCP) and a mixture of rotenone (1 μM) and antimycin A (1 μM). Before carrying out the measurements for each cell model, optimizations were done for; cell number, CCCP, and oligomycin concentrations. For the HCC 827 cell model optimal conditions were; 30,000 cells/well, 0.5 μM CCCP, and 3 μM Oligomycin; and in HeLaNRF1/c4 reporter cell model; 20,000 cells/well, 1 μM CCCP and 3 μM Oligomycin. The OCR measured initially (before any additions) represented the rate ‘basal respiration.’ The addition of ATP synthase inhibitor oligomycin provided oxygen consumption independent of ATP production (‘leak activity’). Maximal respiration (also referred to as ‘respiratory capacity’) was measured upon addition of the uncoupler CCCP. […] After the extracellular flux analysis the analysis plates were washed with Phosphate Buffered Saline (PBS) and frozen at −80° C. The BCA assay (Pierce BCA protein assay kit, Thermo Fisher Scientific, Waltham, Mass. USA) was employed to measure the protein content in the wells. To evaluate the effects of the different treatments, the respiratory rates from compound-treated wells were normalized to protein content, and calculated as percentage of the average respiratory rate of the DMSO-treated control wells. All treatments were performed with 6-8 replicate wells.

[4] = test system: HeLaNRF1/c4 reporter cells; assay: Resazurin conversion assay in HeLaNRF1/c4 reporter cells; type: cell-based; conditions: test compounds 30 μM and 60 μM, long treatment
Method: as §1
Cell viability/proliferation was determined by the resazurin conversion assay. A total of 4000 cells were seeded in each of the 96-well plates in 100 μl of medium. After 3 hours of incubation, 100 μl of fresh medium with respective concentration of the desired compound or controls were added. Resazurin solution (Sigma-Aldrich) was added (10%, v/v in PBS) after 1 or 3 day treatment, followed by 3 hour incubation at 37° C. and 5% CO2. Resazurin fluorescence (excitation, 540 nm; emission, 590 nm) was measured and measurements were corrected for background signals. […] Relative viability was calculated from percent fluorescence relative to DMSO-treated control wells.
In order to investigate if some of the compounds induce metabolic adaptations involving mitochondrial biogenesis, we employed the HeLaNRF1/c4 reporter cells in which activation of the transcription factor NRF1 triggers expression of GFP. Since adaptations of mitochondrial biogenesis are known to require some days to develop, we used a relatively low dosage (30 μM and 60 μM) of the compounds, to allow longer treatment period compared to the previous short term experiments.

[5] = Mildronate-induced fatty liver, liver triacylglycerol; type: in vivo; conditions: C57BL/6 mice; Mildronate 550 mg/kg body weight in low-fat diet; 3 weeks
Method: C57BL/6 mice were divided in 4 groups of 10 mice and fed a control low-fat diet, low-fat diets with TTA (720 mg/kg body weight), Mildronate (550 mg/kg body weight) or a combination of these two treatments for 3 weeks (n=10). At sacrifice, liver samples were collected, lipids were extracted, and triacylglycerol (TAG) measured on the Hitachi 917 system (Roche Diagnostics, GmbH, Mannheim, Germany) using a kit from Roche Diagnostics.

SH-SY5Y cells = assay: GC-MS analysis of TTA in cell medium and SH-SY5Y cells; type: in vitro ADME
Method: The GC-MS analysis was performed on treated SH-SY5Y cells and its medium prior and after treatment of TTA complexed with FBS. The technical work and analysis were performed by Pavol Bohov.
Total medium and cellular FA composition were analyzed by […] after preparation of FA methyl esters from total lipids by heating with a 1:1 mixture of methanol and toluene at 90° C. for 1 hour using sulfuric acid as a catalyst. Gas chromatograph Trace GC Ultra (Finnigan, USA) was equipped with a programmable temperature vaporization injector, flame-ionization detector, AS 2000 autosampler and with a fused silica capillary column coated with dimethylpolysiloxane stationary phase (J & W Scientific, USA). Hydrogen was used as a carrier gas. The column temperature was programmed from 110° C. to 310° C. with a gradient of 2.5° C./min.
The GC signal was acquired and evaluated with Chromeleon software version 6.80 (Dionex, USA). Peaks were identified by means of known FA standards and by means of mass spectra, obtained by GC-MS analysis (GCQ MS Detector, Finnigan, USA) on the same column.
The quantification of the FAs was based on the areas of the chromatographic peaks which were measured electronically. Subsequently, the areas were converted to weight units based on the known amount of the internal standard C21:0 which had been added to the sample. The response of the analytical procedure was determined with a mixture of pure standards (Sigma-Aldrich, USA; Supelco, USA; Larodan Fine Chemicals, Sweden).

[6] = inside SH-SY5Y cells after 24 hours

For `NC(=O)c1ncn([C@@H]2O[C@H](CO)[C@@H](O)[C@H]2O)c1N` [AICAR, 5-aminoimidazole-4-carboxamide-1-β-D-ribofuranoside, reference compound], the “GFP intensity (NRF1 reporter)” value [1] was “significant increase”, the basal respiratory rate [2] was “without affecting the basal respiratory rate” and the “uncoupled respiratory capacity (CCCP)” value [2] was “only increased in the AICAR-treated cells”. The PGC1α expression [3] was “reduced PGC1α expression”, the “basal respiratory rate (OCR)” value (HCC827 cells) was “little or no effect” and the resazurin conversion [4] was “moderate reduction”.

With `C[N+](C)(C)NCCC(=O)[O-]` [Mildronate, 3-(2,2,2-trimethylhydrazinium)propionate] the “increase in liver triacylglycerol (TAG)” value [5] was 7 fold.

For `CCCCCCCC=CCCCCCSCC(=O)O` [TTA: 1n-8], the “Medium 24 h, weight percent of total FA” value (SH-SY5Y cells; cell medium after 24 hours) was “(0.18%)”, the “Medium 24 h, concentration” value (SH-SY5Y cells; cell medium after 24 hours incubation with SH-SY5Y cells) was 0.53 µM and the “Cells 24 h, concentration” value (SH-SY5Y cells; [6]) was 0.017 µM. The “Cells 24 h, weight percent of total FA” value (SH-SY5Y cells; [6]) was “(0.19%)”.
